Experimental data published in publication PMC4177951, “Identification and Functional Expression of a Glutamate- and Avermectin-Gated Chloride Channel from Caligus rogercresseyi, a Southern Hemisphere Sea Louse Affecting Farmed Fish” (PLoS Pathogens, 2014).

Tests used:
[1] = target: T1, CrGluClα-T318A (Caligus rogercresseyi, UniProt A0A1W6LZ70, T318A); experiment: two-electrode voltage clamp in Xenopus oocytes; concentration-response of small evoked currents (Figure 9D); type: cell-based
T1 construct: full ORF in pCR3.1, homopentamer expressed in Xenopus laevis oocytes, T318A point mutant at extracellular end of M3
T1 sequence (A0A1W6LZ70 33-463 T318A): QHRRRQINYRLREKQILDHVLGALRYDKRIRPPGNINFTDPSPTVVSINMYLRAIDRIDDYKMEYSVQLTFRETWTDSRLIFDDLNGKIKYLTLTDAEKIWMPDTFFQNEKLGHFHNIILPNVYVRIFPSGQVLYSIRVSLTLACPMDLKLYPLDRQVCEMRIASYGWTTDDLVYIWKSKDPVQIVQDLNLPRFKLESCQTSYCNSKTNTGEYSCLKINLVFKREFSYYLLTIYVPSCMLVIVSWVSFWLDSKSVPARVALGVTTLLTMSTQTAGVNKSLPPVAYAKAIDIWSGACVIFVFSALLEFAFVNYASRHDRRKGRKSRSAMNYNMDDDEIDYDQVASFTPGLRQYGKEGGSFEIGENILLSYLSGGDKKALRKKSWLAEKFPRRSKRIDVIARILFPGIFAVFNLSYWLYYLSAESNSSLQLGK

[2] = target: T2, CrGluClα (Caligus rogercresseyi, UniProt A0A1W6LZ70); experiment: two-electrode voltage clamp in Xenopus oocytes expressing the channel; agonist concentration-response; type: cell-based
T2 construct: full-length ORF (clones CrGluCl-Vald13 and CrGluCl-Vald2)
T2 sequence (A0A1W6LZ70 entry or part of it): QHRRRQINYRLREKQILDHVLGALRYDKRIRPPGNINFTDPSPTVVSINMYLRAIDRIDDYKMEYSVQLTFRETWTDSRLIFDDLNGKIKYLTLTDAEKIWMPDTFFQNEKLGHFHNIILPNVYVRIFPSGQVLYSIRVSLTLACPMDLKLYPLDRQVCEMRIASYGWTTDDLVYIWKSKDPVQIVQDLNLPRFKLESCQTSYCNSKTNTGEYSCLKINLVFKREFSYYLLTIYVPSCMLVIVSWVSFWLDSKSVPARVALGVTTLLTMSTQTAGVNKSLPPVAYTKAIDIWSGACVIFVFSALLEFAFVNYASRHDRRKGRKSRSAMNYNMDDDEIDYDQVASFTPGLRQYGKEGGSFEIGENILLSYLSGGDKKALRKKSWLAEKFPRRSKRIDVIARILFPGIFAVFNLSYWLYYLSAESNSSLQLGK

N[C@@H](CCC(=O)O)C(=O)O [L-glutamate]
concentration-response of evoked currents [1]: Maximal response was reached at lower glutamate concentrations in the CrGluClα-T318A mutant channel. | EC50 [2]: 6.89 ± 0.83 µM
